Data published in publication PMC5218480 (PLoS ONE, 2017).

System: MV-4-11 cells
Test: Gene expression microarray analysis (Affymetrix PrimeView) and GSEA
Assay type: cell-based, human
Set-up: RFU PODN (11730768_x_at) / Fold change /veh PODN (11730768_x_at) / RFU LINC00158 (11744669_a_at) / Fold change /veh LINC00158 (11744669_a_at) / RFU DUSP10 (11751237_a_at) / Fold change /veh DUSP10 (11751237_a_at) / RFU ID3 (11757404_x_at) / Fold change /veh ID3 (11757404_x_at) / RFU PLEKHG5 (11737974_s_at) / Fold change /veh PLEKHG5 (11737974_s_at) / RFU LRRC4B (11730491_at) / Fold change /veh LRRC4B (11730491_at) / RFU GIMAP4 (11747438_a_at) / Fold change /veh GIMAP4 (11747438_a_at) / RFU KRT8 (11758183_x_at) / Fold change /veh KRT8 (11758183_x_at) / RFU CNN1 (11734310_a_at) / Fold change /veh CNN1 (11734310_a_at) / RFU VPS37D (11726825_at) / Fold change /veh VPS37D (11726825_at) / RFU C10orf10 (11716522_x_at) / Fold change /veh C10orf10 (11716522_x_at) / RFU KIR2DL2 /// KIR2DL4 /// KIR2DL5A /// KIR2DL5B /// KIR2DS1 /// KIR2DS2 /// KIR2DS3 /// KIR2DS4 /// KIR3DL3 /// KIR3DL3 /// KIR3DS1 (11738374_at) / Fold change /veh KIR2DL2 /// KIR2DL4 /// KIR2DL5A /// KIR2DL5B /// KIR2DS1 /// KIR2DS2 /// KIR2DS3 /// KIR2DS4 /// KIR3DL3 /// KIR3DL3 /// KIR3DS1 (11738374_at) / RFU C1QL1 (11718748_at) / Fold change /veh C1QL1 (11718748_at) / RFU TMPRSS4 (11747572_a_at) / Fold change /veh TMPRSS4 (11747572_a_at) / RFU HAMP (11756126_x_at) / Fold change /veh HAMP (11756126_x_at) / RFU RNFT2 (11725882_a_at) / Fold change /veh RNFT2 (11725882_a_at) / RFU NR4A2 (11747474_a_at) / Fold change /veh NR4A2 (11747474_a_at) / RFU ABCC12 (11746883_a_at) / Fold change /veh ABCC12 (11746883_a_at) / RFU TMEM136 (11760407_x_at) / Fold change /veh TMEM136 (11760407_x_at) / RFU CLDN22 /// WWC2 (11732394_at) / Fold change /veh CLDN22 /// WWC2 (11732394_at) / RFU HLA-DPB1 (11760878_x_at) / Fold change /veh HLA-DPB1 (11760878_x_at) / RFU SPINT1 (11716480_a_at) / Fold change /veh SPINT1 (11716480_a_at) / RFU GAP43 (11754022_s_at) / Fold change /veh GAP43 (11754022_s_at) / RFU A4GNT (11735810_at) / Fold change /veh A4GNT (11735810_at) / RFU PRB3 (11715151_x_at) / Fold change /veh PRB3 (11715151_x_at) / RFU TUBB4B (11761932_at) / Fold change /veh TUBB4B (11761932_at) / RFU CAPN14 (11732068_a_at) / Fold change /veh CAPN14 (11732068_a_at) / RFU TMCC2 (11721928_a_at) / Fold change /veh TMCC2 (11721928_a_at) / RFU IRGQ (11745062_a_at) / Fold change /veh IRGQ (11745062_a_at) / RFU FAM174B (11720279_a_at) / Fold change /veh FAM174B (11720279_a_at) / RFU TMPRSS4 (11748680_a_at) / Fold change /veh TMPRSS4 (11748680_a_at) / RFU FAM212B (11763350_a_at) / Fold change /veh FAM212B (11763350_a_at) / RFU PLEKHG5 (11743358_a_at) / Fold change /veh PLEKHG5 (11743358_a_at) / RFU ZSCAN30 (11745921_a_at) / Fold change /veh ZSCAN30 (11745921_a_at) / RFU CMKLR1 (11741424_a_at) / Fold change /veh CMKLR1 (11741424_a_at) / RFU LOC101060620 /// MAPK8IP1 (11723275_at) / Fold change /veh LOC101060620 /// MAPK8IP1 (11723275_at) / RFU SPTSSB (11747773_x_at) / Fold change /veh SPTSSB (11747773_x_at) / RFU PRSS12 (11739890_at) / Fold change /veh PRSS12 (11739890_at) / RFU BIN1 (11741810_x_at) / Fold change /veh BIN1 (11741810_x_at) / RFU WNT11 (11732464_a_at) / Fold change /veh WNT11 (11732464_a_at) / RFU C10orf10 (11716521_a_at) / Fold change /veh C10orf10 (11716521_a_at) / RFU C5orf56 (11738089_at) / Fold change /veh C5orf56 (11738089_at) / RFU CYB561 (11721691_x_at) / Fold change /veh CYB561 (11721691_x_at) / RFU ANKRD19P (11752326_a_at) / Fold change /veh ANKRD19P (11752326_a_at) / RFU OR2T12 /// OR2T33 /// OR2T8 (11738714_s_at) / Fold change /veh OR2T12 /// OR2T33 /// OR2T8 (11738714_s_at) / RFU VCAN (11748164_a_at) / Fold change /veh VCAN (11748164_a_at) / RFU JSRP1 (11732532_at) / Fold change /veh JSRP1 (11732532_at) / RFU KRTAP10-11 (11738290_x_at) / Fold change /veh KRTAP10-11 (11738290_x_at) / RFU MYO3A (11730013_a_at) / Fold change /veh MYO3A (11730013_a_at) / RFU EBF3 (11725865_a_at) / Fold change /veh EBF3 (11725865_a_at) / RFU CAMK2N1 (11719241_x_at) / Fold change /veh CAMK2N1 (11719241_x_at) / RFU C5orf56 (11738088_a_at) / Fold change /veh C5orf56 (11738088_a_at) / RFU OLFML3 (11715873_a_at) / Fold change /veh OLFML3 (11715873_a_at) / RFU LOC100653217 /// NTM (11731650_a_at) / Fold change /veh LOC100653217 /// NTM (11731650_a_at) / RFU MAPK11 (11762145_a_at) / Fold change /veh MAPK11 (11762145_a_at) / RFU FIZ1 (11724087_x_at) / Fold change /veh FIZ1 (11724087_x_at) / RFU OASL (11726364_x_at) / Fold change /veh OASL (11726364_x_at) / RFU SOX15 (11748057_x_at) / Fold change /veh SOX15 (11748057_x_at) / RFU CD79A (11719716_a_at) / Fold change /veh CD79A (11719716_a_at) / RFU HIST1H1D (11736915_at) / Fold change /veh HIST1H1D (11736915_at) / RFU CASKIN2 (11723855_a_at) / Fold change /veh CASKIN2 (11723855_a_at) / RFU LOC730098 (11760151_x_at) / Fold change /veh LOC730098 (11760151_x_at) / RFU OR4N2 (11742367_at) / Fold change /veh OR4N2 (11742367_at) / RFU PRRT2 (11749266_a_at) / Fold change /veh PRRT2 (11749266_a_at) / RFU SNX32 (11753110_a_at) / Fold change /veh SNX32 (11753110_a_at) / RFU CDHR5 (11726645_a_at) / Fold change /veh CDHR5 (11726645_a_at) / RFU RCAN1 (11760418_a_at) / Fold change /veh RCAN1 (11760418_a_at) / RFU FAM167A (11723789_a_at) / Fold change /veh FAM167A (11723789_a_at) / RFU FAM26E (11764081_at) / Fold change /veh FAM26E (11764081_at) / RFU ISYNA1 (11749810_s_at) / Fold change /veh ISYNA1 (11749810_s_at) / RFU ACY1 (11761880_at) / Fold change /veh ACY1 (11761880_at) / RFU 11764098_at / Fold change /veh 11764098_at / RFU SAMD14 (11745864_x_at) / Fold change /veh SAMD14 (11745864_x_at) / RFU NPB (11741838_a_at) / Fold change /veh NPB (11741838_a_at) / RFU TMPRSS6 (11731388_a_at) / Fold change /veh TMPRSS6 (11731388_a_at) / RFU KRTAP10-2 (11738614_at) / Fold change /veh KRTAP10-2 (11738614_at) / RFU ARHGAP8 /// PRR5-ARHGAP8 (11727945_x_at) / Fold change /veh ARHGAP8 /// PRR5-ARHGAP8 (11727945_x_at) / RFU KRTAP5-7 /// NADSYN1 (11734609_at) / Fold change /veh KRTAP5-7 /// NADSYN1 (11734609_at) / RFU RASL12 (11751679_a_at) / Fold change /veh RASL12 (11751679_a_at) / RFU CDKN2B (11736163_a_at) / Fold change /veh CDKN2B (11736163_a_at) / RFU PRF1 (11729649_at) / Fold change /veh PRF1 (11729649_at) / RFU, ZNF638 /// ZNF638-IT1 / Fold change vs veh, ZNF638 /// ZNF638-IT1 / RFU, PANK3 / Fold change vs veh, PANK3 / RFU, SH3YL1 / Fold change vs veh, SH3YL1 / RFU, ZEB2 / Fold change vs veh, ZEB2 / RFU, NRIP1 / Fold change vs veh, NRIP1 / RFU, PTTG1IP / Fold change vs veh, PTTG1IP / RFU, CAPN2 / Fold change vs veh, CAPN2 / RFU, MED14 / Fold change vs veh, MED14 / RFU, SNORA58 / Fold change vs veh, SNORA58 / RFU, C1orf63 / Fold change vs veh, C1orf63 / RFU, LRRFIP1 / Fold change vs veh, LRRFIP1 / RFU, NDUFAF7 / Fold change vs veh, NDUFAF7 / RFU, SLC12A2 / Fold change vs veh, SLC12A2 / RFU, IBTK / Fold change vs veh, IBTK / RFU, ESF1 / Fold change vs veh, ESF1 / Fold change vs veh, TMEM50B / RFU, TAOK1 / Fold change vs veh, TAOK1 / RFU, ACBD3 / Fold change vs veh, ACBD3 / RFU, TMA16 / Fold change vs veh, TMA16 / RFU, RWDD3 / Fold change vs veh, RWDD3 / RFU, BCAT1 / Fold change vs veh, BCAT1 / RFU, EDEM3 / Fold change vs veh, EDEM3 / RFU, TMEM33 / Fold change vs veh, TMEM33 / RFU, WDR75 / Fold change vs veh, WDR75 / RFU, AHCTF1 / Fold change vs veh, AHCTF1 / RFU, TFRC / Fold change vs veh, TFRC / RFU, ZDHHC17 / Fold change vs veh, ZDHHC17 / RFU, NOM1 / Fold change vs veh, NOM1 / RFU, ARL8B / Fold change vs veh, ARL8B / RFU, ZBTB11 / Fold change vs veh, ZBTB11 / RFU, TAMM41 / Fold change vs veh, TAMM41 / RFU, KIAA1704 /// LOC100996395 / Fold change vs veh, KIAA1704 /// LOC100996395 / RFU, ING1 / Fold change vs veh, ING1 / RFU, TRMT61B / Fold change vs veh, TRMT61B / RFU, FUBP3 / Fold change vs veh, FUBP3 / RFU, TP53 / Fold change vs veh, TP53 / RFU, TNKS2 / Fold change vs veh, TNKS2 / RFU, ZFP14 / Fold change vs veh, ZFP14 / RFU, ACTR2 / Fold change vs veh, ACTR2 / RFU, PPP3R1 / Fold change vs veh, PPP3R1 / RFU, PIK3R1 / Fold change vs veh, PIK3R1 / RFU, HNRNPA1 / Fold change vs veh, HNRNPA1 / RFU, RNF170 / Fold change vs veh, RNF170 / RFU, ZNF28 / Fold change vs veh, ZNF28 / RFU, RNGTT / Fold change vs veh, RNGTT / RFU, OGT / Fold change vs veh, OGT / RFU, BRD1 / Fold change vs veh, BRD1 / RFU, MARS / Fold change vs veh, MARS / RFU, ZNF655 / Fold change vs veh, ZNF655 / RFU, FAHD1 / Fold change vs veh, FAHD1 / RFU, BDP1 / Fold change vs veh, BDP1 / RFU, LRRCC1 / Fold change vs veh, LRRCC1 / RFU, ARID1A / Fold change vs veh, ARID1A / RFU, ZNF146 / Fold change vs veh, ZNF146 / RFU, ZNF330 / Fold change vs veh, ZNF330 / RFU, GPN3 / Fold change vs veh, GPN3 / RFU, C9orf123 / Fold change vs veh, C9orf123 / RFU, N4BP2L2 / Fold change vs veh, N4BP2L2 / RFU, ARFIP1 / Fold change vs veh, ARFIP1 / RFU, FAM179B / Fold change vs veh, FAM179B / RFU, BCL10 / Fold change vs veh, BCL10 / RFU, UHRF1BP1L / Fold change vs veh, UHRF1BP1L / RFU, BET1 / Fold change vs veh, BET1 / RFU, CNOT2 / Fold change vs veh, CNOT2 / RFU, ZNF268 / Fold change vs veh, ZNF268 / Fold change vs veh, ZNF507 / RFU, DGCR2 / Fold change vs veh, DGCR2 / RFU, WDSUB1 / Fold change vs veh, WDSUB1 / Fold change vs veh, HSP90B1 /// MIR3652 / RFU, ADSS / Fold change vs veh, ADSS / RFU, GK / Fold change vs veh, GK / RFU, ZNF148 / Fold change vs veh, ZNF148 / RFU, TAF9 / Fold change vs veh, TAF9 / RFU, SLC1A5 / Fold change vs veh, SLC1A5 / RFU, SLMO2 / Fold change vs veh, SLMO2 / RFU, ABCC4 / Fold change vs veh, ABCC4 / RFU, LOC101060439 /// RAP1B / Fold change vs veh, LOC101060439 /// RAP1B / RFU, RFX7 / Fold change vs veh, RFX7 / RFU, GTPBP10 / Fold change vs veh, GTPBP10 / RFU, CNEP1R1 / Fold change vs veh, CNEP1R1 / RFU, BIVM-ERCC5 /// ERCC5 / Fold change vs veh, BIVM-ERCC5 /// ERCC5 / RFU, ILF3 / Fold change vs veh, ILF3 / RFU 11762660_at / Fold change /veh 11762660_at / RFU VCAN (11757783_s_at) / Fold change /veh VCAN (11757783_s_at) / RFU DDX43 (11728927_at) / Fold change /veh DDX43 (11728927_at) / RFU KRT8 (11758188_x_at) / Fold change /veh KRT8 (11758188_x_at) / RFU NKD1 (11759106_at) / Fold change /veh NKD1 (11759106_at) / RFU SRD5A1 (11742802_a_at) / Fold change /veh SRD5A1 (11742802_a_at) / RFU TPSAB1 /// TPSB2 (11721975_s_at) / Fold change /veh TPSAB1 /// TPSB2 (11721975_s_at) / RFU GSTM3 (11746129_a_at) / Fold change /veh GSTM3 (11746129_a_at) / RFU IL23R (11737362_x_at) / Fold change /veh IL23R (11737362_x_at) / RFU TMEM51 (11727254_a_at) / Fold change /veh TMEM51 (11727254_a_at) / RFU PIWIL2 (11732686_x_at) / Fold change /veh PIWIL2 (11732686_x_at) / RFU ORM1 (11744905_x_at) / Fold change /veh ORM1 (11744905_x_at) / RFU CCDC152 (11743942_at) / Fold change /veh CCDC152 (11743942_at) / RFU ECM1 (11717891_a_at) / Fold change /veh ECM1 (11717891_a_at) / RFU IL23R (11748794_a_at) / Fold change /veh IL23R (11748794_a_at) / RFU TNFAIP8L3 (11732012_x_at) / Fold change /veh TNFAIP8L3 (11732012_x_at) / RFU MBOAT4 (11741988_at) / Fold change /veh MBOAT4 (11741988_at) / RFU 11764193_at / Fold change /veh 11764193_at / RFU TMEM53 (11763286_at) / Fold change /veh TMEM53 (11763286_at) / RFU MAGEB2 (11727129_at) / Fold change /veh MAGEB2 (11727129_at) / RFU TMEM200A (11744735_a_at) / Fold change /veh TMEM200A (11744735_a_at) / RFU CCDC152 (11751479_a_at) / Fold change /veh CCDC152 (11751479_a_at) / RFU FAM211A (11726209_a_at) / Fold change /veh FAM211A (11726209_a_at) / RFU RGS16 (11746705_a_at) / Fold change /veh RGS16 (11746705_a_at) / RFU VCAN (11755009_s_at) / Fold change /veh VCAN (11755009_s_at) / RFU RHOB (11743442_s_at) / Fold change /veh RHOB (11743442_s_at) / RFU RGS16 (11720943_a_at) / Fold change /veh RGS16 (11720943_a_at) / RFU RGS16 (11720944_at) / Fold change /veh RGS16 (11720944_at) / RFU, VPS4B / Fold change vs veh, VPS4B / RFU, CREB1 / Fold change vs veh, CREB1 / RFU, DNAJC13 / Fold change vs veh, DNAJC13 / RFU, GNAQ / Fold change vs veh, GNAQ / RFU, CDK5R1 / Fold change vs veh, CDK5R1 / RFU, ZRANB3 / Fold change vs veh, ZRANB3 / RFU, CUL4A / Fold change vs veh, CUL4A / RFU, CCNY / Fold change vs veh, CCNY / RFU, UFL1 / Fold change vs veh, UFL1 / RFU, COG3 / Fold change vs veh, COG3 / RFU, DIAPH2 / Fold change vs veh, DIAPH2 / RFU, SKA2 / Fold change vs veh, SKA2 / RFU, AFF3 / Fold change vs veh, AFF3 / RFU, LMF1 / Fold change vs veh, LMF1 / RFU, IPO11 / Fold change vs veh, IPO11 / RFU, DFFB / Fold change vs veh, DFFB / RFU, FOXP1 / Fold change vs veh, FOXP1 / RFU, CARD8 / Fold change vs veh, CARD8 / RFU, STRN3 / Fold change vs veh, STRN3 / RFU, ADK / Fold change vs veh, ADK / RFU, RASSF2 / Fold change vs veh, RASSF2 / RFU, WIPF1 / Fold change vs veh, WIPF1 / RFU, LARP1B / Fold change vs veh, LARP1B / RFU, RASA1 / Fold change vs veh, RASA1 / RFU, RB1 / Fold change vs veh, RB1 / RFU, PPFIA1 / Fold change vs veh, PPFIA1 / RFU, MAT2A / Fold change vs veh, MAT2A / RFU, CCT5 / Fold change vs veh, CCT5 / RFU, WDR92 / Fold change vs veh, WDR92 / RFU, CUX1 / Fold change vs veh, CUX1 / RFU, TTC7A / Fold change vs veh, TTC7A / RFU, TMEM135 / Fold change vs veh, TMEM135 / RFU, DEPTOR / Fold change vs veh, DEPTOR / RFU, CPM / Fold change vs veh, CPM / RFU, DNAJB6 / Fold change vs veh, DNAJB6 / RFU, CACNA2D3 / Fold change vs veh, CACNA2D3 / RFU, DTX4 / Fold change vs veh, DTX4 / RFU, TFCP2 / Fold change vs veh, TFCP2 / RFU, GMCL1 /// GMCL1P1 / Fold change vs veh, GMCL1 /// GMCL1P1 / RFU, AEBP2 / Fold change vs veh, AEBP2 / RFU, SNHG1 /// SNORD22 /// SNORD25 /// SNORD26 /// SNORD27 /// SNORD28 /// SNORD29 /// SNORD31 / Fold change vs veh, SNHG1 /// SNORD22 /// SNORD25 /// SNORD26 /// SNORD27 /// SNORD28 /// SNORD29 /// SNORD31 / Fold change (Aza/veh), C12orf56 (ProbeSet 11735607_a_at) / Fold change (ACY-1035/veh), C12orf56 (ProbeSet 11735607_a_at) / Fold change (Aza/veh), FGFR1OP (ProbeSet 11751329_s_at) / Fold change (ACY-1035/veh), FGFR1OP (ProbeSet 11751329_s_at) / Fold change (Aza/veh), VPS36 (ProbeSet 11739960_a_at) / Fold change (ACY-1035/veh), VPS36 (ProbeSet 11739960_a_at) / RFU SYPL1 (11715823_x_at) / Fold change /veh SYPL1 (11715823_x_at) / RFU IGFBP7 (11715501_s_at) / Fold change /veh IGFBP7 (11715501_s_at) / RFU REEP3 (11722064_at) / Fold change /veh REEP3 (11722064_at) / RFU IGLL1 (11728026_x_at) / Fold change /veh IGLL1 (11728026_x_at): dose or concentration left out as unconfirmed
Conditions: MV-4-11 cells, 48 hours

Nc1ccc(-c2cccs2)cc1NC(=O)c1ccc2c(c1)cc(C1CC1)n2CCN1CCOCC1 [ACY-1035]
RFU TUBB4B (11761932_at): 19.33 RFU
